Measurements reported in US8232267B2, “Porphyrin catalysts and methods of use thereof” (The Trustees of Princeton University, priority 2006, dated 2012).

Test: Stopped-flow spectrophotometric analysis of kinetics of peroxynitrite decomposition
Assay type: biochemical
Settings: 100 mM phosphate buffer pH 7.4, 25° C.
Excerpt: Peroxynitrite was synthesized from hydrogen peroxide and nitrous acid using an sp250i syringe pump by modification of published procedures. See, Shimanovich, R.; Groves, J. T., Mechanisms of Peroxynitrite Decomposition Catalyzed by FeTMPS, a Bioactive Sulfonated Iron Porphyrin. Archives of Biochemistry and Biophysics 2001, 387, (2), 307-317; Saha, A.; Goldstein, S.; Cabelli, D.; Czapski, G., Determination of optimal conditions for synthesis of peroxynitrite by mixing acidified hydrogen peroxide with nitrite. Free Radical Biology & Medicine 1998, 24, (4), 653-659; and Uppu, R. M.; Squadrito, G. L.; Cueto, R.; Pryor, W. A., Selecting the most appropriate synthesis of peroxynitrite. […] Peroxynitrite concentrations were determined spectrophotometrically at 302 nm (ε302=1670 L mol^−1 cm^−1). […] In this manner, the concentration of peroxynitrite was determined to be 95 mM. […] Nitrite and nitrate anions were detected and quantified by measuring the absorbance decrease (indirect UV detection) at 310 nm. […] Concentrations of hydrogen peroxide in the peroxynitrite before and after treatment with MnO2 were measured by PeroXOquant Quantitative peroxide assay kit (Pierce Biotechnology), an assay based on the oxidation of Fe^2+ to Fe^3+ by H2O2 under acidic conditions. […]

## iron(III) chloride meso-tetrakis-2(N-(N-(2-methoxyethyl)acetamido)pyridyl porphyrin [Test porphyrin]
  kcat: 1.4e+07 M⁻¹ s⁻¹
